≈ marks a conversion by molar mass, not a printed value.
Experiments:
M. smegmatis MC2155 = test: toxicity to M. smegmatis (growth suppression, MIC); assay type: cell-based; settings: for suppression of growth of M. smegmatis: M. smegmatis MC2155
Procedure: To determine if the results in the S. coelicolor based assay had relevance to Mycobacteria, all fourteen compounds were tested for toxicity to M. smegmatis MC2155, a surrogate of M. tuberculosis. […] Three of these inhibitory compounds were trans-disubstituted β-lactones with unbranched alkyl substituents on both the α- and β-carbons (β-lactones 2-4). For these molecules, there was a positive correlation between the length of the alkyl group on the α-carbon and antibacterial activity. […] The compounds were subsequently shown to be inhibitors of ClpP in vitro. In Mycobacteria, ClpP inhibition is associated with killing. Previous reports of ClpP inhibition generally described suppression of virulence in pathogenic bacteria (S. aureus and L. monocytogenes).

[1] = tested on: S. coelicolor strain with the neo reporter gene; test: neo reporter strain assay (kanamycin resistance under PopR-dependent promoter); assay type: cell-based, S. coelicolor M145; settings: DNAgar, 10 μg/mL kanamycin, optical density at 48 hrs
M. tuberculosis H37Rv = test: toxicity to M. tuberculosis (growth inhibition, MIC); assay type: cell-based

| SMILES | suppression of growth of M. smegmatis (M. smegmatis MC2155) | growth of reporter strain on media supplemented with kanamycin [1] | inhibition of growth of M. tuberculosis H37Rv (M. tuberculosis H37Rv) | MIC (M. tuberculosis H37Rv; Mycobacterium tuberculosis, H37RV, M. tuberculosis) [µg/mL] | MIC (M. smegmatis MC2155; Mycolicibacterium smegmatis, MC2155, M. smegmatis) [µg/mL] |
| --- | --- | --- | --- | --- | --- |
| CCCCCC1C(=O)OC1CCC (stereo not drawn) [Compound 2] | suppressed the growth of M. smegmatis | enabled the reporter strain to grow on media supplemented with kanamycin | – | – | – |
| CCCCCCCC1C(=O)OC1CCC (stereo not drawn) [Compound 3] | suppressed the growth of M. smegmatis | enabled the reporter strain to grow on media supplemented with kanamycin | – | – | – |
| C=CCCCCCCCC1C(=O)OC1CCC (stereo not drawn) [Compound 4] | suppressed the growth of M. smegmatis | enabled the reporter strain to grow on media supplemented with kanamycin | inhibited growth of M. tuberculosis H37Rv | – | – |
| CCCC1OC(=O)C1Cc1ccccc1 (stereo not drawn) [Compound 7] | suppressed the growth of M. smegmatis | enabled the reporter strain to grow on media supplemented with kanamycin | inhibited growth of M. tuberculosis H37Rv | 28 (≈ 137 µM) | 10 (≈ 49 µM) |

— patent publication US20160221977A1, “ANT[…]-LACTONES, AND METHODS OF IDENTIFICATION, MANUFACTURE AND USE” (priority 2014, published 2016)
